Data as given in patent US20230165980A1, “METHODS FOR RADIOLABELING PSMA BINDING LIGANDS AND THEIR KITS” (Novartis AG, priority 2020, published 2023).

Assay: Radiochemical purity and radiochemical stability of ^68GaPSMA-11 by HPLC
Assay type: physicochemical
Method: Radiochemical Purity and Identification of ^68GaPSMA-11 by HPLC
Chromatographic Conditions
Radical Scavenger to be used for the improvement of the radiochemical stability of ^68Ga-PSMA-11, tests were performed according to a varied approach in order to consider all the parameters that may affect the radiochemical purity of the product (activity, pH, volume, amount of Gentisic Acid).
Stability tests were performed on the freeze dried product containing the final formulation. […] Kits manufactured with the final formulation, indeed, were stored at different stability conditions (2-8° C.; 25° C. and 40° C.) and were tested at different time points for API-assay, Radiochemical Purity and Radiochemical Stability of the radiolabelled product. Radiochemical Purity and Stability were assessed only eluting IRE Generator which represented the most stressful condition in terms of Radioactive Concentration (Volumic Activity).

[1] = t4 h, Gentisic Acid 0 μg, IRE 17.19 mCi, 1 mL, pH 5.24
[2] = t4 h, Gentisic Acid 200 μg, IRE 17.85 mCi, 1 mL, pH 5.22
[3] = t4 h, Gentisic Acid 200 μg, IRE 18.07 mCi, 1 mL, pH 5.25
[4] = t4 h, Gentisic Acid 200 μg, ITG 35.92 mCi, 4 mL, pH 4.83
[5] = t4 h, Gentisic Acid 400 μg, IRE 17.44 mCi, 1 mL, pH 5.13
[6] = t4 h, Gentisic Acid 400 μg, IRE 17.79 mCi, 1 mL, pH 5.11
[7] = t4 h, Gentisic Acid 400 μg, ITG 16.9 mCi, 4 mL, pH 4.85
[8] = t4 h, Gentisic Acid 400 μg, ITG 31.97 mCi, 4 mL, pH 4.81
[9] = t4 h, Gentisic Acid 1000 μg, E&Z 15.65 mCi, 5 mL, pH 3.75
[10] = t4 h, Gentisic Acid 1000 μg, IRE 17.1 mCi, 1 mL, pH 5.08
[11] = t4 h, Gentisic Acid 1000 μg, ITG 30.9 mCi, 4 mL, pH 4.87
[12] = t4 h, final formulation kit at Release, E&Z 15.65 mCi, 5 mL, pH 3.75
[13] = t4 h, final formulation kit at Release, E&Z 16.80 mCi, 5 mL, pH 3.75
[14] = t4 h, final formulation kit at Release, IRE 32.27 mCi, 1 mL, pH 4.95
[15] = t4 h, final formulation kit at Release, IRE 32.95 mCi, 1 mL, pH 5.07
[16] = t4 h, final formulation kit at Release, ITG 29.74 mCi, 4 mL, pH 4.67
[17] = t4 h, final formulation kit at Release, ITG 30.90 mCi, 4 mL, pH 4.67
[18] = t4 h, kit stored 3 months at 2-8° C., IRE 25.76 mCi, 1 mL, pH 5.29
[19] = t4 h, kit stored 3 months at 25° C., IRE 24.56 mCi, 1 mL, pH 5.16
[20] = t4 h, kit stored 3 months at 40° C., IRE 24.86 mCi, 1 mL, pH 5.23
[21] = t4 h, kit stored 6 months at 2-8° C., IRE 19.90 mCi, 1 mL, pH 5.13
[22] = t4 h, kit stored 6 months at 25° C., IRE 18.88 mCi, 1 mL, pH 5.09
[23] = t4 h, kit stored 6 months at 40° C., IRE 19.34 mCi, 1 mL, pH 5.15

In the case of ^68Ga-PSMA-11 [[^68Ga] Gallium PSMA-11], the “[^68Ga] Gallium main degradant, HPLC” value (t0 h, kit stored 6 months at 40° C., IRE 19.34 mCi, 1 mL, pH 5.15) is reported as 0.42%, the “[^68Ga] Gallium PSMA-11 (sum of stereosiomers), HPLC” value [1] is reported as 90.89% and the “[^68Ga] Gallium free, HPLC” value [1] is reported as 0.14%. For the same substance, the “[^68Ga] Gallium main degradant, HPLC” value [1] was 7.32%, the “[^68Ga] Gallium PSMA-11 (sum of stereosiomers), HPLC” value [2] was 97.87% and the “[^68Ga] Gallium free, HPLC” value [2] was 0.00%. For the same substance, the “[^68Ga] Gallium main degradant, HPLC” value [2] was 1.80%, the “[^68Ga] Gallium PSMA-11 (sum of stereosiomers), HPLC” value [3] was 97.80% and the “[^68Ga] Gallium free, HPLC” value [3] was 0.00%. The “[^68Ga] Gallium main degradant, HPLC” value [3] was 1.74%, the “[^68Ga] Gallium PSMA-11 (sum of stereosiomers), HPLC” value [4] was 99.72% and the “[^68Ga] Gallium free, HPLC” value [4] was 0.00%. The “[^68Ga] Gallium main degradant, HPLC” value [4] was 0.00%, the “[^68Ga] Gallium PSMA-11 (sum of stereosiomers), HPLC” value [5] was 99.20% and the “[^68Ga] Gallium free, HPLC” value [5] was 0.00%. For the same substance, the “[^68Ga] Gallium main degradant, HPLC” value [5] was 0.68%, the “[^68Ga] Gallium PSMA-11 (sum of stereosiomers), HPLC” value [6] was 98.46% and the “[^68Ga] Gallium free, HPLC” value [6] was 0.00%. The “[^68Ga] Gallium main degradant, HPLC” value [6] was 1.54%, the “[^68Ga] Gallium PSMA-11 (sum of stereosiomers), HPLC” value [7] was 98.24% and the “[^68Ga] Gallium free, HPLC” value [7] was 0.00%. The “[^68Ga] Gallium main degradant, HPLC” value [7] was 0.00%, the “[^68Ga] Gallium PSMA-11 (sum of stereosiomers), HPLC” value [8] was 99.57% and the “[^68Ga] Gallium free, HPLC” value [8] was 0.00%. For the same substance, the “[^68Ga] Gallium main degradant, HPLC” value [8] was 0.00%, the “[^68Ga] Gallium PSMA-11 (sum of stereosiomers), HPLC” value [9] was 100.00% and the “[^68Ga] Gallium free, HPLC” value [9] was 0.00%. For the same substance, the “[^68Ga] Gallium main degradant, HPLC” value [9] was 0.00%, the “[^68Ga] Gallium PSMA-11 (sum of stereosiomers), HPLC” value [10] was 99.59% and the “[^68Ga] Gallium free, HPLC” value [10] was 0.00%. For the same substance, the “[^68Ga] Gallium main degradant, HPLC” value [10] was 0.41%, the “[^68Ga] Gallium PSMA-11 (sum of stereosiomers), HPLC” value [11] was 99.69% and the “[^68Ga] Gallium free, HPLC” value [11] was 0.00%. For the same substance, the “[^68Ga] Gallium main degradant, HPLC” value [11] was 0.06%, the “[^68Ga] Gallium PSMA-11 (sum of stereosiomers), HPLC” value [12] was 100.00% and the “[^68Ga] Gallium free, HPLC” value [12] was 0.00%. The “[^68Ga] Gallium main degradant, HPLC” value [12] was 0.00%, the “[^68Ga] Gallium PSMA-11 (sum of stereosiomers), HPLC” value [13] was 100.00% and the “[^68Ga] Gallium free, HPLC” value [13] was 0.00%. The “[^68Ga] Gallium main degradant, HPLC” value [13] was 0.00%, the “[^68Ga] Gallium PSMA-11 (sum of stereosiomers), HPLC” value [14] was 98.75% and the “[^68Ga] Gallium free, HPLC” value [14] was 0.00%. The “[^68Ga] Gallium main degradant, HPLC” value [14] was 0.54%, the “[^68Ga] Gallium PSMA-11 (sum of stereosiomers), HPLC” value [15] was 99.05% and the “[^68Ga] Gallium free, HPLC” value [15] was 0.03%. The “[^68Ga] Gallium main degradant, HPLC” value [15] was 0.42%, the “[^68Ga] Gallium PSMA-11 (sum of stereosiomers), HPLC” value [16] was 99.82% and the “[^68Ga] Gallium free, HPLC” value [16] was 0.00%. The “[^68Ga] Gallium main degradant, HPLC” value [16] was 0.00%, the “[^68Ga] Gallium PSMA-11 (sum of stereosiomers), HPLC” value [17] was 99.69% and the “[^68Ga] Gallium free, HPLC” value [17] was 0.00%. The “[^68Ga] Gallium main degradant, HPLC” value [17] was 0.06%, the “[^68Ga] Gallium PSMA-11 (sum of stereosiomers), HPLC” value [18] was 99.37% and the “[^68Ga] Gallium free, HPLC” value [18] was 0.00%. The “[^68Ga] Gallium main degradant, HPLC” value [18] was 0.49%, the “[^68Ga] Gallium PSMA-11 (sum of stereosiomers), HPLC” value [19] was 99.03% and the “[^68Ga] Gallium free, HPLC” value [19] was 0.00%. For the same substance, the “[^68Ga] Gallium main degradant, HPLC” value [19] was 0.38%, the “[^68Ga] Gallium PSMA-11 (sum of stereosiomers), HPLC” value [20] was 98.20% and the “[^68Ga] Gallium free, HPLC” value [20] was 0.00%. For the same substance, the “[^68Ga] Gallium main degradant, HPLC” value [20] was 0.37%, the “[^68Ga] Gallium PSMA-11 (sum of stereosiomers), HPLC” value [21] was 99.44% and the “[^68Ga] Gallium free, HPLC” value [21] was 0.00%. The “[^68Ga] Gallium main degradant, HPLC” value [21] was 0.44%, the “[^68Ga] Gallium PSMA-11 (sum of stereosiomers), HPLC” value [22] was 99.21% and the “[^68Ga] Gallium free, HPLC” value [22] was 0.00%. For the same substance, the “[^68Ga] Gallium main degradant, HPLC” value [22] was 0.33%, the “[^68Ga] Gallium PSMA-11 (sum of stereosiomers), HPLC” value [23] was 99.23% and the “[^68Ga] Gallium free, HPLC” value [23] was 0.00%. For the same substance, the “[^68Ga] Gallium main degradant, HPLC” value [23] was 0.46%.
